pKi: −log10 of the molar value.
Tests used:
[1] = target: T1, Adrenergic receptor alpha-1 (Rattus norvegicus, UniProt P15823+P23944+P43140); assay: Binding affinity towards Alpha-1 adrenergic receptor; type: protein assay
T1 sequence (P15823 whole entry): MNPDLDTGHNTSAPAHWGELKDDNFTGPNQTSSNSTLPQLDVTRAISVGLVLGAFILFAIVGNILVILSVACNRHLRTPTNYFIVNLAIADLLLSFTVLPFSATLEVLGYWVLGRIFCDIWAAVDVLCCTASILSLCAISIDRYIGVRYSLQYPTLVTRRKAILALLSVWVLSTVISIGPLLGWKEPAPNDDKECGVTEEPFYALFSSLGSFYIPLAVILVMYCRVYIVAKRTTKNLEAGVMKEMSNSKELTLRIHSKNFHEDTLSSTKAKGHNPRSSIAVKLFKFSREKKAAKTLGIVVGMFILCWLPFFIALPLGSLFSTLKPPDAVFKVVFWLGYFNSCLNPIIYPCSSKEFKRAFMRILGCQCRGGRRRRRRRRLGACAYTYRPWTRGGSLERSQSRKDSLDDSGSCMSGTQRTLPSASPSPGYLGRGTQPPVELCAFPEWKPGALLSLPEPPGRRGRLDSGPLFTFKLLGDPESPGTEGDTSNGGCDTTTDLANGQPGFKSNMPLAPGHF
T1 sequence (P23944 whole entry): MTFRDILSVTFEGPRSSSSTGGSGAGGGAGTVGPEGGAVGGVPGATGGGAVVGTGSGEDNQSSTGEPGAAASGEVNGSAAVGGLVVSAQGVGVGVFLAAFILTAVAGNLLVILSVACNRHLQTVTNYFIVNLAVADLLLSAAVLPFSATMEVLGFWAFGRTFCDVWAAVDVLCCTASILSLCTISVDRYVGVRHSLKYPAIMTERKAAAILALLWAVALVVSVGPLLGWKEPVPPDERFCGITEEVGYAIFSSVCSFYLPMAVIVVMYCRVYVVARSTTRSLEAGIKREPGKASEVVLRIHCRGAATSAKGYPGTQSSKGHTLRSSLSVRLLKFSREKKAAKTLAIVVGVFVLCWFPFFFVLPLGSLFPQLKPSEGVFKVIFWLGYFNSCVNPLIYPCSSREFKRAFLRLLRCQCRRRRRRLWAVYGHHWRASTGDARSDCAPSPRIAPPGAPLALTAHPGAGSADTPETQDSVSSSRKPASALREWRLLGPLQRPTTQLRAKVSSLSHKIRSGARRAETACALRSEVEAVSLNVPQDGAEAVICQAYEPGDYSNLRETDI
T1 sequence (P43140 whole entry): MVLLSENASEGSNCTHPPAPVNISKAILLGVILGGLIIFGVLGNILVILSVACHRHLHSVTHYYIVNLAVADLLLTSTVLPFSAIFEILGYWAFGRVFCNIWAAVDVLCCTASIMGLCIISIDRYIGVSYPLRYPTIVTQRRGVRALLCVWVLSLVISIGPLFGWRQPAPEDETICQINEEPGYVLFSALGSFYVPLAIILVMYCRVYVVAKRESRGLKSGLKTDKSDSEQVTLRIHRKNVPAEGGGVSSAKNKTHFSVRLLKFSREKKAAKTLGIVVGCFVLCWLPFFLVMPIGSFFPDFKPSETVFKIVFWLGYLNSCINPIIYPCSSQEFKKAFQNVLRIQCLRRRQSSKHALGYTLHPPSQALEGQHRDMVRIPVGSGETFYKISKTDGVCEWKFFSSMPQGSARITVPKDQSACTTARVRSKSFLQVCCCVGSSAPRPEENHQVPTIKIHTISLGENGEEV

D(2) dopamine receptor = D(2) dopamine receptor (Bos taurus, UniProt P20288); assay: Binding affinity towards Dopamine receptor D2
Mus musculus [2] = assay: Ability to inhibit TNF-alpha in LPS-stimulated mice after oral administration by ELISA assay; type: functional; parameters: concentration or dose not given beside the values
[3] = target: T2, 5-hydroxytryptamine receptor 1A (Rattus norvegicus, UniProt P19327); assay: Binding affinity towards 5-hydroxytryptamine 1A receptor
T2 sequence (P19327 whole entry): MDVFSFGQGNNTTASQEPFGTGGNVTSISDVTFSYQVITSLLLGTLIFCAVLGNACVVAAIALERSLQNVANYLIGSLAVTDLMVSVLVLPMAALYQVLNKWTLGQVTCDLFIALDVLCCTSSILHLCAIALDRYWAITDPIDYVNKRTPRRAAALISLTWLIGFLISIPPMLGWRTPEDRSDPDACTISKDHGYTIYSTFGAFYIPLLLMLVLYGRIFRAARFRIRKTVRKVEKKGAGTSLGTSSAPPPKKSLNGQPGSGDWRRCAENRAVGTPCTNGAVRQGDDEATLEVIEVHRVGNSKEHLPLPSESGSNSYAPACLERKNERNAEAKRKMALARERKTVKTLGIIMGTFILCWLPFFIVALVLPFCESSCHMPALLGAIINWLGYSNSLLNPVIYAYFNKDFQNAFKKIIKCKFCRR

Mus musculus [4] = assay: Ability to augment IL-10 in LPS-stimulated mice after oral administration by ELISA assay; type: functional; parameters: concentration or dose not given beside the values
[5] = target: Serotonin 2 (5-HT2) receptor (Homo sapiens, UniProt P41595+P28223+P28335); assay: Binding affinity towards 5-hydroxytryptamine 2 receptor; type: protein assay
Mus musculus [6] = species on record: Mus musculus; assay: Dose that prevented shock death in mice; type: functional
Mus musculus [7] = assay: Ability of compound to prevent shock death in mice expressed as no of mice that survived out of 10 at a dose of 10 mg/kg; type: functional
[8] = Oral bioavailability at a dose of 30 mg/kg in rats; type: ADME, organism-based; details: rat, in vivo

D(2) dopamine receptor, sequence (P20288 whole entry): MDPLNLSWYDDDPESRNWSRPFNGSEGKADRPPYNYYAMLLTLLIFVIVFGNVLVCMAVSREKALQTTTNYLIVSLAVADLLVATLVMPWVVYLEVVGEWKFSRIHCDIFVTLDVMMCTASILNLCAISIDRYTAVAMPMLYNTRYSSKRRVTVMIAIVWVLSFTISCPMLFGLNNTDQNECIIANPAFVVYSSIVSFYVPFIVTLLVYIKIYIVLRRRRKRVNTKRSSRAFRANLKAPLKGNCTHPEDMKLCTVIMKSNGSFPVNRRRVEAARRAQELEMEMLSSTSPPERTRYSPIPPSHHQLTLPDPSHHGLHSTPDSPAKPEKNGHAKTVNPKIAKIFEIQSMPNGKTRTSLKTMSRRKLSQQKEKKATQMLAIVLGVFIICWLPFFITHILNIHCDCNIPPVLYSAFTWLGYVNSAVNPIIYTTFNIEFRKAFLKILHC

## Nc1nc(-c2ccc(CCCCN3CCN(c4ccccc4)CC3)cc2)cs1
[1]
  Ki: 7.9 nM
D(2) dopamine receptor
  pKi: 8.26
Mus musculus [2]
  Inhibition: 87%
[3]
  pKi: 8.42
Mus musculus [4]
  IL-10 level (% of control): 382%
[5]
  Ki: 37 nM

## CC(=O)NCc1ccc(CCN2CCN(c3ccccc3)CC2)cc1
[1]
  Ki: 69 nM
D(2) dopamine receptor
  pKi: 6.77
Mus musculus [2]
  Inhibition: 96%
[3]
  pKi: 8.54
Mus musculus [4]
  IL-10 level (% of control): 2784%
[5]
  Ki: 130 nM

## CC(=O)NCc1ccc(CN2CCN(c3ccccc3)CC2)cc1
[1]
  Ki: > 1000 nM
D(2) dopamine receptor
  pKi: < 6.00
Mus musculus [2]
  Inhibition: 89%
[3]
  pKi: 6.85
Mus musculus [4]
  IL-10 level (% of control): 376%
[5]
  Ki: > 1000 nM

## CC(=O)NCc1ccc(CN2CCN(c3ccc(F)cc3F)CC2)cc1
Mus musculus [6]
  Dose: 10 mg/kg
[1]
  Ki: > 1000 nM
Mus musculus [7]
  Survival: 8
D(2) dopamine receptor
  pKi: < 6.00
Mus musculus [2]
  Inhibition: 91%
Mus musculus [4]
  IL-10 level (% of control): 2293%
[5]
  Ki: > 1000 nM
[8]
  bioavailability: 95.5%

## CC(=O)NCCc1ccc(CCCCN2CCN(c3ccccc3)CC2)cc1
Mus musculus [2]
  Inhibition: 76%
Mus musculus [4]
  IL-10 level (% of control): 292%

## N=C(N)NCc1ccc(CCCCN2CCN(c3ccccc3)CC2)cc1
Mus musculus [2]
  Inhibition: 39%
Mus musculus [4]
  IL-10 level (% of control): 124%

## COc1ccc(N2CCN(Cc3ccc(CNC(C)=O)cc3)CC2)cc1
[1]
  Ki: > 1000 nM
D(2) dopamine receptor
  pKi: < 6.00
Mus musculus [2]
  Inhibition: 74%
[3]
  pKi: < 6.00
Mus musculus [4]
  IL-10 level (% of control): 449%
[5]
  Ki: > 1000 nM

## CC(=O)Nc1ccc(CCCCN2CCN(c3ccccc3)CC2)cc1
Mus musculus [2]
  Inhibition: 88%
Mus musculus [4]
  IL-10 level (% of control): 585%

## CC(=O)NCc1ccc(CCCCN2CCN(c3ccccc3)CC2)cc1
[1]
  Ki: 4.6 nM
D(2) dopamine receptor
  pKi: 7.31
Mus musculus [2]
  Inhibition: 94%
[3]
  pKi: 8.22
Mus musculus [4]
  IL-10 level (% of control): 1337%
[5]
  Ki: 48 nM

## N/C(S)=N/Cc1ccc(CCCCN2CCN(c3ccccc3)CC2)cc1
Mus musculus [2]
  Inhibition: 69%
Mus musculus [4]
  IL-10 level (% of control): 129%

## NC(=O)NCc1ccc(CCCCN2CCN(c3ccccc3)CC2)cc1
Mus musculus [2]
  Inhibition: 85%
Mus musculus [4]
  IL-10 level (% of control): 253%

## CC(=O)NCc1ccc(CCCN2CCN(c3ccccc3)CC2)cc1
[1]
  Ki: 6.4 nM
D(2) dopamine receptor
  pKi: 6.47
Mus musculus [2]
  Inhibition: 97%
[3]
  pKi: 7.48
Mus musculus [4]
  IL-10 level (% of control): 1805%
[5]
  Ki: 160 nM

## CC(=O)NCCCc1ccc(CCCCN2CCN(c3ccccc3)CC2)cc1
Mus musculus [2]
  Inhibition: 68%
Mus musculus [4]
  IL-10 level (% of control): 146%

## CC(=O)NCc1ccc(CN2CCN(c3ccc(F)cc3)CC2)cc1
[1]
  Ki: > 1000 nM
D(2) dopamine receptor
  pKi: < 6.00
Mus musculus [2]
  Inhibition: 87%
[3]
  pKi: < 6.00
Mus musculus [4]
  IL-10 level (% of control): 1494%
[5]
  Ki: > 1000 nM

## CC(=O)NCc1ccc(CN2CCN(c3ccc(Cl)cc3)CC2)cc1
[1]
  Ki: > 1000 nM
D(2) dopamine receptor
  pKi: < 6.00
Mus musculus [2]
  Inhibition: 65%
[3]
  pKi: < 6.00
Mus musculus [4]
  IL-10 level (% of control): 361%
[5]
  Ki: > 1000 nM

## c1ccc(CCCCN2CCN(c3ccccc3)CC2)cc1
Mus musculus [2]
  Inhibition: 77%
Mus musculus [4]
  IL-10 level (% of control): 337%
